From article PMC10150365 (Journal of Medicinal Chemistry, 2023)

Experiments:
Assay in all cases: Cerep SafetyScreen-87
Details in all cases: n=2
Monoamine Oxidase MAO-A = molecular target: T1, Monoamine Oxidase MAO-A (Homo sapiens, UniProt P21397); assay type: biochemical
T1 construct: purchased Eurofins Cerep/Panlabs SafetyScreen-87

Adenosine A1 = molecular target: T2, Adenosine A1 (Homo sapiens, UniProt P30542); assay type: binding
T2 construct: purchased Eurofins Cerep/Panlabs SafetyScreen-87

Adrenergic β1 = molecular target: T3, Adrenergic β1 (Homo sapiens, UniProt P08588); assay type: binding
T3 construct: purchased Eurofins Cerep/Panlabs SafetyScreen-87

Cannabinoid CB1 = molecular target: T4, Cannabinoid CB1 (Homo sapiens, UniProt P21554); assay type: binding
T4 construct: purchased Eurofins Cerep/Panlabs SafetyScreen-87

Cannabinoid CB2 = molecular target: T5, Cannabinoid CB2 (Homo sapiens, UniProt P34972); assay type: binding
T5 construct: purchased Eurofins Cerep/Panlabs SafetyScreen-87

Chemokine CCR1 = molecular target: T6, Chemokine CCR1 (Homo sapiens, UniProt P32246); assay type: binding
T6 construct: purchased Eurofins Cerep/Panlabs SafetyScreen-87

Dopamine D2S = molecular target: T7, Dopamine D2S (Homo sapiens, UniProt P14416); assay type: binding
T7 construct: purchased Eurofins Cerep/Panlabs SafetyScreen-87

[1] = molecular target: T8, Glutamate, Metabotropic, mGlu5 (Homo sapiens, UniProt P41594); assay type: binding
T8 construct: purchased Eurofins Cerep/Panlabs SafetyScreen-87

Muscarinic M3 = molecular target: T9, Muscarinic M3 (Homo sapiens, UniProt P20309); assay type: binding
T9 construct: purchased Eurofins Cerep/Panlabs SafetyScreen-87

[2] = molecular target: T10, Platelet Activating Factor (PAF) (Homo sapiens, UniProt P25105); assay type: binding
T10 construct: purchased Eurofins Cerep/Panlabs SafetyScreen-87

Progesterone PR-B = molecular target: T11, Progesterone PR-B (Homo sapiens, UniProt P06401); assay type: binding
T11 construct: purchased Eurofins Cerep/Panlabs SafetyScreen-87

[3] = molecular target: T12, Serotonin (5-Hydroxytryptamine) 5-HT2A (Homo sapiens, UniProt P28223); assay type: binding
T12 construct: purchased Eurofins Cerep/Panlabs SafetyScreen-87

[4] = molecular target: T13, Serotonin (5-Hydroxytryptamine) 5-HT3 (Homo sapiens, UniProt P46098); assay type: binding
T13 construct: purchased Eurofins Cerep/Panlabs SafetyScreen-87

[5] = molecular target: T14, Transporter, Dopamine (DAT) (Homo sapiens, UniProt Q01959); assay type: binding
T14 construct: purchased Eurofins Cerep/Panlabs SafetyScreen-87

Adenosine A2A = Adenosine A2A (Homo sapiens, UniProt P29274); assay type: binding; design: purchased Eurofins Cerep/Panlabs SafetyScreen-87

T2 sequence (P30542 whole entry): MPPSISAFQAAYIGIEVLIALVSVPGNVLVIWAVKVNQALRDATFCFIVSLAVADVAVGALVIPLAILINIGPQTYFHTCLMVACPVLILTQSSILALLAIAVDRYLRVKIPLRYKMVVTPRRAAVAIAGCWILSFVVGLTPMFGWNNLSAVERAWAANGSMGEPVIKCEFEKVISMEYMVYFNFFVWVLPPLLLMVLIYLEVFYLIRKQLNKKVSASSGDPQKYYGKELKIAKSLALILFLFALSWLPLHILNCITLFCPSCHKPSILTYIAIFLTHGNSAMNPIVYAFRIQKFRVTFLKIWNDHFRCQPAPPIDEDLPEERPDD
T6 sequence (P32246 whole entry): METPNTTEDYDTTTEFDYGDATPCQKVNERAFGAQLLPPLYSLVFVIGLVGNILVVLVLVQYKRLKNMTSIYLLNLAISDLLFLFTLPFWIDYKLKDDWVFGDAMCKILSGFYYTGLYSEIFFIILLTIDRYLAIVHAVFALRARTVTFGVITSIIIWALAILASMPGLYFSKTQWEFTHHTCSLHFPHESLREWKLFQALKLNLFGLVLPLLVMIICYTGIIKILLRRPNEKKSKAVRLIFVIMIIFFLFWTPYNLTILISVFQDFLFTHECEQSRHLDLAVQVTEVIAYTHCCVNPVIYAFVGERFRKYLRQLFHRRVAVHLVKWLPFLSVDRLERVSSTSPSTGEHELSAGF
T12 sequence (P28223 whole entry, looked up): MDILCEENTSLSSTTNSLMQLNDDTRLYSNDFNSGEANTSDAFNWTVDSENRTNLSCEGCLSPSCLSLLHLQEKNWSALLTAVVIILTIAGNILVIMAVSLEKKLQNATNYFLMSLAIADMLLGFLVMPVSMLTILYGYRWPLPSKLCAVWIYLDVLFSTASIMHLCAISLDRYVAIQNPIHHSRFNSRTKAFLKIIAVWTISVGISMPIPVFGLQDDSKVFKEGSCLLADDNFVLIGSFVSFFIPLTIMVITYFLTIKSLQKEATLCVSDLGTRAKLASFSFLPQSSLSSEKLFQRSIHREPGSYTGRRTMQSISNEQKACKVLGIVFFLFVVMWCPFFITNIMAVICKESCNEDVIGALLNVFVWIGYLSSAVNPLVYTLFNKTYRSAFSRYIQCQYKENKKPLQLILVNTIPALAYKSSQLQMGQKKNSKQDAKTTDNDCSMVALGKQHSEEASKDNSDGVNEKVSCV
T9 sequence (P20309 whole entry): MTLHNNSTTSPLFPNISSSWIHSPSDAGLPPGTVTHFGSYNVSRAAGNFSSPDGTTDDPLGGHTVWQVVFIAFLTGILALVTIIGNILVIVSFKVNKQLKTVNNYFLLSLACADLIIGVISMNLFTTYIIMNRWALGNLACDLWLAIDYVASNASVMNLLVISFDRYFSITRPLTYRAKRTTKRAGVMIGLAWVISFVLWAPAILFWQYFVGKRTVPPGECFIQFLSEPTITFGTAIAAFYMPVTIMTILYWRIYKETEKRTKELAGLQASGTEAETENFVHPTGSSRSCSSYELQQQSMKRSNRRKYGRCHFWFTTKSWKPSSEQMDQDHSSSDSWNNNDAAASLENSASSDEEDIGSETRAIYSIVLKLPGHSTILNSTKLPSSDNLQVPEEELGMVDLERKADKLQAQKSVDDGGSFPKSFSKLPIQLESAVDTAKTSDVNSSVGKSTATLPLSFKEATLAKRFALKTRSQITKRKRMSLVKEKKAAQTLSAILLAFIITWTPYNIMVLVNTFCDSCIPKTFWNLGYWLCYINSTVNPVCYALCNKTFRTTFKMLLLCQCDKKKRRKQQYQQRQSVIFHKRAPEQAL
T13 sequence (P46098 24-478): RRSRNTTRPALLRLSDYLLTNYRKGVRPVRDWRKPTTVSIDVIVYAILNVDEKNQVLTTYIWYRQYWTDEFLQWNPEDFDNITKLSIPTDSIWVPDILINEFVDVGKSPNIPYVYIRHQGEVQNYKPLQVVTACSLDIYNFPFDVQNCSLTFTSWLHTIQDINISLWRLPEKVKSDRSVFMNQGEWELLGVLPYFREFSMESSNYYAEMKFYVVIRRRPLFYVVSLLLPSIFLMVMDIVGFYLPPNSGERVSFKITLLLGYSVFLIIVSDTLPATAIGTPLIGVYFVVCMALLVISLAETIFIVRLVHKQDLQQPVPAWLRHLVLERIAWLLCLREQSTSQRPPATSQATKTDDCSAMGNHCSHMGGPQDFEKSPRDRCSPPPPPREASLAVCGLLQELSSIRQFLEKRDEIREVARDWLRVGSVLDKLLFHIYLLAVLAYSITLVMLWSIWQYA
T1 sequence (P21397 whole entry): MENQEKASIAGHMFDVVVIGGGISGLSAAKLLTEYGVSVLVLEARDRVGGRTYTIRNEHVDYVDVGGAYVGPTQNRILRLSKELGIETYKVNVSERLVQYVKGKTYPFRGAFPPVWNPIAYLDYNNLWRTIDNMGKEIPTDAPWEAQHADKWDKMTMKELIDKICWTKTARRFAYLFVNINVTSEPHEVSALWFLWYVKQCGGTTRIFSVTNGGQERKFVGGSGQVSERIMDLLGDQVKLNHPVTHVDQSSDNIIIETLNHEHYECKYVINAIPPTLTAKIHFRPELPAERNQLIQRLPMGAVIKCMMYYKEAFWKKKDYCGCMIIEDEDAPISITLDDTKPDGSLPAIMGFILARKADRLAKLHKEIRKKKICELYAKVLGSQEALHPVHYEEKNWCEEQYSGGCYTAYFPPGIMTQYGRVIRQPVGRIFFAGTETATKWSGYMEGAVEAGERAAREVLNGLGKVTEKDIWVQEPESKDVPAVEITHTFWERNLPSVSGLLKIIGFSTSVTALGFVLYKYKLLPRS
T7 sequence (P14416 1-414 isoform P14416-2): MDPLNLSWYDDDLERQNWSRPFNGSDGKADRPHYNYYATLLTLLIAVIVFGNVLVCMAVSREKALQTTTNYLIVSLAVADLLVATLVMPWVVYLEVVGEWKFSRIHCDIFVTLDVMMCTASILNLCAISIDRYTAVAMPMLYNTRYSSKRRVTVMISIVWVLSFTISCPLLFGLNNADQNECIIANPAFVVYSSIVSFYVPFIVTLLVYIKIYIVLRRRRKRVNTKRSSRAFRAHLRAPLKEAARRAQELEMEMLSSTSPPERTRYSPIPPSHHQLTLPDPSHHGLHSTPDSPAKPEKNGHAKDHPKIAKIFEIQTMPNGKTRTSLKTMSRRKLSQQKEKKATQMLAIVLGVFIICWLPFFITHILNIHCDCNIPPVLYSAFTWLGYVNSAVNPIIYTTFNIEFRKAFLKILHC
T14 sequence (Q01959 whole entry): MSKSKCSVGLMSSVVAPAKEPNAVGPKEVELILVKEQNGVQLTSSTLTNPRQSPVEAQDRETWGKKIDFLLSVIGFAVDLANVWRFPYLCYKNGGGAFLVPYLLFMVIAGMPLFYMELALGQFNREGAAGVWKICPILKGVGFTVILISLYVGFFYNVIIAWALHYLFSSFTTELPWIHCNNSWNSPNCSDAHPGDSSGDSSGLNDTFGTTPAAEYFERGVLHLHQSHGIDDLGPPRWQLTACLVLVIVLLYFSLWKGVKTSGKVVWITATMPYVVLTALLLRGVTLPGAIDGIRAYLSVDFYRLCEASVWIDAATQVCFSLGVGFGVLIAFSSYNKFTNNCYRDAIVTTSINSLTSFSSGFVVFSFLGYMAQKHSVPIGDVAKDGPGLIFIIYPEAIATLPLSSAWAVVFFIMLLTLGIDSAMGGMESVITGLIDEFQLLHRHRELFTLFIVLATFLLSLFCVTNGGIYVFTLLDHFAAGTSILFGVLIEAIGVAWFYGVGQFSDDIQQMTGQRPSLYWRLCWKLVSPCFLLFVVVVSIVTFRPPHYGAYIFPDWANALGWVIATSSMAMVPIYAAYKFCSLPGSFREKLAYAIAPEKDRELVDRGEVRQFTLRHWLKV
T3 sequence (P08588 whole entry): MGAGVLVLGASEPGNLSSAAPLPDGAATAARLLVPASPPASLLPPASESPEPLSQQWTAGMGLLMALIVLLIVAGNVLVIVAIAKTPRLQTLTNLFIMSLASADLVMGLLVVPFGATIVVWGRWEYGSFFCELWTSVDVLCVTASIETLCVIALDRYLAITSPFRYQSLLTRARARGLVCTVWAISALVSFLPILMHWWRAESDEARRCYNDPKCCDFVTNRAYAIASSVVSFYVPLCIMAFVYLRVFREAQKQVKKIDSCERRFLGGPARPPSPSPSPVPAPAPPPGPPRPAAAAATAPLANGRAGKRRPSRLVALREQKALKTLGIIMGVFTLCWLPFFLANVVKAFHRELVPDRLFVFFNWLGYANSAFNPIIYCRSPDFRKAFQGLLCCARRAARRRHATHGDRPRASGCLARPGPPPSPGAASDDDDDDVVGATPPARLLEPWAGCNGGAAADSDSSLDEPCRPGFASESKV
T4 sequence (P21554 whole entry): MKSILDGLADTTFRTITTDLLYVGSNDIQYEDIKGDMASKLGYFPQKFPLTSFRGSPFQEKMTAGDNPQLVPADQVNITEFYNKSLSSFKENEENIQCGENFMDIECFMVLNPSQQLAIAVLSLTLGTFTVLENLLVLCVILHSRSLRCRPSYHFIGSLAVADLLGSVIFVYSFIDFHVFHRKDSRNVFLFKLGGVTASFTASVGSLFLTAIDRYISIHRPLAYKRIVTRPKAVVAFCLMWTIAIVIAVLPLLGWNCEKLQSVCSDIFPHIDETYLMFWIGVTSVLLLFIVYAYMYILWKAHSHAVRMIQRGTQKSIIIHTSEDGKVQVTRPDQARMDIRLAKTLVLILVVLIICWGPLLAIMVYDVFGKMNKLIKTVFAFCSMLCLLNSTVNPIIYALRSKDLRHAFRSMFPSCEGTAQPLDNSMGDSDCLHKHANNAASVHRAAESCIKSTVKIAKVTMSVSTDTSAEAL

Which inhibition at 10 µM (Monoamine Oxidase MAO-A) does the source give for `CCN1CCN(Cc2ccc3cc(C(=O)Nc4cc(NC(=O)c5ccc6c(c5)OCCO6)ccc4F)ccc3n2)CC1` [Compound 22, N-(5-(2,3-Dihydrobenzo[b][1,4]dioxine-6-carboxamido)-2-fluorophenyl)-2-((4-ethylpiperazin-1-yl)methyl)quinoline-6-carboxamide] here?
The inhibition at 10 µM was 77%.

What about the inhibition at 10 µM (Adenosine A1) of the same compound?
The inhibition at 10 µM was 11%.

And the inhibition at 10 µM (Adrenergic β1)?
The inhibition at 10 µM was 4%.

And the inhibition at 10 µM (Cannabinoid CB1)?
Its inhibition at 10 µM is 9%.

And the inhibition at 10 µM (Cannabinoid CB2)?
The inhibition at 10 µM was 79%.

What about the inhibition at 10 µM (Chemokine CCR1) of the same compound?
The inhibition at 10 µM was 2%.

What about the inhibition at 10 µM (Dopamine D2S) of the same compound?
The inhibition at 10 µM was 5%.

And the inhibition at 10 µM [1]?
Its inhibition at 10 µM is -2%.

What about the inhibition at 10 µM (Muscarinic M3) of the same compound?
Its inhibition at 10 µM is 30%.

What about the inhibition at 10 µM (Progesterone PR-B) of the same compound?
Its inhibition at 10 µM is 5%.

What about the inhibition at 10 µM [3] of the same compound?
The inhibition at 10 µM was 64%.

And the inhibition at 10 µM [4]?
The inhibition at 10 µM was -10%.

And the inhibition at 10 µM [5]?
The inhibition at 10 µM was 38%.

And the inhibition at 10 µM (Adenosine A2A)?
The inhibition at 10 µM was 91%.
